According to publication PMC3634507 (International Journal of Molecular Sciences, 2013):
Values joined by “and” are separate entries in the source; they are usually repeats but may differ in a detail not shown here. Equal values may be shown once. Read-outs that look alike come from different tables or passages of the source.

Key:
[1] = biological target: T1, AChE from Electrophorus electricus (Electrophorus electricus, UniProt O42275); test: Ellman's assay, AChE inhibition; type: biochemical
T1 construct: purchased Sigma-Aldrich

[2] = biological target: T2, BuChE from horse serum (Equus caballus, UniProt P81908); test: biochemical
T2 construct: BuChE from horse serum (2.5 units/1 mL); purchased Sigma-Aldrich; host or cells: horse serum
Method: The activity against acetylcholinesterases from electric eel and butyrylcholinesterase from horse serum was determined in spectrophotometric Ellman’s assay.
The activity against cholinesterases was determined in spectrophotometric Ellman’s assay.
The reaction took place in 100 mM phosphate buffer, pH 8.0, containing 0.25 units of AChE or BuChE, 0.3 mmol 5,5′-dithio-bis-(2-nitrobenzoic) acid (DTNB) and 0.45 mmol acetylthiocholine or butyrylthiocholine as substrates. The tested compounds were incubated with the enzyme for 5 min at 25 °C prior to starting the reaction by adding the substrate.

[3] = biological target: T1, AChE from Electrophorus electricus; conditions: Ellman's assay, compounds 7-9 ref 39, cited from earlier work
[4] = AChE IC50, Ellman's assay, electric eel AChE, pH 8.0, 25 °C
[5] = Ellman's assay, horse serum BuChE, pH 8.0, 25 °C, n.a.: not active, read-out: BuChE IC50
[6] = electric eel AChE, read-out: AChE IC50

T2 sequence (P81908 whole entry): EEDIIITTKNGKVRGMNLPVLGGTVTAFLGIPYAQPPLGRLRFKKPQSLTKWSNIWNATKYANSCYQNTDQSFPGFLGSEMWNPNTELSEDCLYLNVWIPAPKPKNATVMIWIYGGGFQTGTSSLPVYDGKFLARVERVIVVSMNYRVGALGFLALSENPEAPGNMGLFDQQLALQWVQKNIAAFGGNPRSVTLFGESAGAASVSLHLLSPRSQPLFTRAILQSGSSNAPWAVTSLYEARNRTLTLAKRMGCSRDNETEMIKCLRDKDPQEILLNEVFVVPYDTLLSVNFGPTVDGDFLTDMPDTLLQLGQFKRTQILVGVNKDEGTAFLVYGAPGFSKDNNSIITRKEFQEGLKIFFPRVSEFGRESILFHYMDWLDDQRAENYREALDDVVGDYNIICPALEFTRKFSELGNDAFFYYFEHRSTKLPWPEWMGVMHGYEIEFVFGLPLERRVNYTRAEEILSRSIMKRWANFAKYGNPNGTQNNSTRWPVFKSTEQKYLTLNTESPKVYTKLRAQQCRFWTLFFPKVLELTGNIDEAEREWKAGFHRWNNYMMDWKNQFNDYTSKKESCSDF
T1 sequence (O42275 24-633): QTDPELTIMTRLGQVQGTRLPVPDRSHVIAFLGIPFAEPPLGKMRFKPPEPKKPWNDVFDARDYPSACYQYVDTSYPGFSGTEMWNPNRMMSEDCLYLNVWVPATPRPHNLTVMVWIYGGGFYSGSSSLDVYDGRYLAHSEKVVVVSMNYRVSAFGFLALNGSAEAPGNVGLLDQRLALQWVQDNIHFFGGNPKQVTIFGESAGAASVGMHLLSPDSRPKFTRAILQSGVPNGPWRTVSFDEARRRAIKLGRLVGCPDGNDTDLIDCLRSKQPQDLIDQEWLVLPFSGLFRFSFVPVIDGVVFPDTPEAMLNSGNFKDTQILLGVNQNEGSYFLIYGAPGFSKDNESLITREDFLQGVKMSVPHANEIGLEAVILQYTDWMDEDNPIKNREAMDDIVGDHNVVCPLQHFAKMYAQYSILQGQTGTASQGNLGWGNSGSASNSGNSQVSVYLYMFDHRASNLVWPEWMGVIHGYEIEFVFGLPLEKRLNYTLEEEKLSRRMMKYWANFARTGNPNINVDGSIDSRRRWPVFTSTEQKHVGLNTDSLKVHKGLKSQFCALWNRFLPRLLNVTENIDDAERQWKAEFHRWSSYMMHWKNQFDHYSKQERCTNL

| Compound | IC50 [1, 4] [nM] | IC50 ([1]; IC50 AChE, Ellman's assay) | also measured |
| --- | --- | --- | --- |
| O=C1c2ccccc2C(=O)N1CCCNC1CCN(Cc2ccccc2)CC1 [Compound 1, 2-(3-(1-Benzylpiperidin-4-ylamino)propyl)isoindoline-1,3-dione] | 18200 | – | IC50 [2, 5]: 22800 nM |
| O=C1c2ccccc2C(=O)N1CCCCCCNC1CCN(Cc2ccccc2)CC1 [Compound 2, 2-(6-(1-Benzylpiperidin-4-ylamino)hexyl)isoindoline-1,3-dione] | 53700 | – | IC50 [2, 5]: 24500 nM |
| O=C1c2ccccc2C(=O)N1CCCCCCNC1CCN(Cc2cccc(Cl)c2)CC1 [Compound 3, 2-(6-(1-(3-Chlorobenzyl)piperidin-4-ylamino)hexyl)isoindoline-1,3-dione] | 44000 | – | IC50 [2]: 7660 nM |
| O=C1c2ccccc2C(=O)N1CCCCCCNCc1ccccc1 [Compound 4, 2-(6-(Benzylamino)hexyl)isoindoline-1,3-dione] | 330 | 330 nM | – |
| O=C1c2ccccc2C(=O)N1CCCCCNCc1ccccc1 [Compound 5, 2-(5-(Benzylamino)pentyl)isoindoline-1,3-dione] | 170 | 170 nM | – |
| O=C1c2ccccc2C(=O)N1CCCCCNCc1ccccc1F [Compound 6, 2-(5-(2-fluorobenzylamino)pentyl)isoindoline-1,3-dione] | 87.2 | 87 nM and 87.2 nM | – |
| CCN(CC)CCCCCCCN1C(=O)c2ccccc2C1=O [Compound 8, 2-(7-diethylaminoheptyl)-isoindoline-1,3-dione] | – | – | IC50 [3, 6]: 1070 nM; IC50 ([3]; read-out: IC50 AChE): 1070 nM |
| CCN(CC)CCCCCCN1C(=O)c2ccccc2C1=O [Compound 9, 2-(6-diethylaminohexyl)-isoindoline-1,3-dione] | – | – | IC50 [3, 6]: 1230 nM; IC50 ([3]; read-out: IC50 AChE): 1230 nM |
